Toxic doses and inconclusive results are not listed.

The subject of the experiment is P388 leukemia ip, CD2F1 mice, survival T/C. Put plainly: NCI In Vivo Anticancer Drug Screen. Data for tumor model P388 Leukemia (intraperitoneal) in CD2F1 (CDF1) mice. The following applies: endpoint: median survival time, higher = longer survival. In outline: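 Mice carrying the transplanted tumor received test compound or vehicle. Survival was recorded in each group, and the value is the treated-group measurement divided by that of the vehicle-treated control group.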

Setting [1] is: dose: 60.0 mg/kg/injection, schedule: Q01DX005 (ip), vehicle: saline with Tween-80.
[2] abbreviates: dose: 120.0 mg/kg/injection, schedule: Q01DX005 (ip), vehicle: saline with Tween-80.
Setting [3] is: dose: 240.0 mg/kg/injection, schedule: Q01DX005 (ip), vehicle: saline with Tween-80.
[4] abbreviates: dose: 60.0 mg/kg/injection, schedule: Q01DX005 (ip), vehicle: Klucel (hydroxypropylcellulose) (HPC).
Where [5] appears, read: dose: 120.0 mg/kg/injection, schedule: Q01DX005 (ip), vehicle: Klucel (hydroxypropylcellulose) (HPC).

For the molecule `COc1cc(C(=O)n2c(=O)oc(=O)c3cc([N+](=O)[O-])ccc32)cc(OC)c1OC`, the T/C runs as follows: (dose: 60.0 mg/kg/injection, schedule: Q01DX005 (ip), vehicle: saline) 101 % of control; (dose: 120.0 mg/kg/injection, schedule: Q01DX005 (ip), vehicle: saline) 94 % of control; (dose: 240.0 mg/kg/injection, schedule: Q01DX005 (ip), vehicle: saline) 89 % of control.

`COc1ccc(/C=N\N=C(/[O-])c2ccc(Cl)cc2)cc1.COc1ccc(/C=N\N=C(/[O-])c2ccc(Cl)cc2)cc1.[Ni+2].[OH3+].[OH3+]`: under “dose: 100.0 mg/kg/injection, schedule: Q04DX002 (ip), vehicle: saline with Tween-80”, the T/C was 92 % of control.

In the case of `COc1ccc2c(c1)C(=O)C[C@@H]1[C@](C)(C#N)CCC[C@]21C`, the T/C by setting is: under setting [1], 100 % of control; under setting [2], 94 % of control; under setting [3], 94 % of control.

As to `CN(NC(=O)CC(=O)NN(C)C(=S)c1ccccc1)C(=S)c1ccccc1`, the T/C (dose: 12.5 mg/kg/injection, schedule: Q01DX009 (ip), vehicle: gum acacia) was 97 % of control; the T/C (dose: 25.0 mg/kg/injection, schedule: Q01DX009 (ip), vehicle: gum acacia) was 115 % of control; the T/C (dose: 50.0 mg/kg/injection, schedule: Q01DX009 (ip), vehicle: gum acacia) was 104 % of control.

On to `COC(=O)C1(C(=O)OC)OC(c2ccc(OC)cc2)[C@H]2C(=O)N(C)C(=O)[C@H]21` (stereo partly drawn), for which the T/C by setting is: under setting [4], 92 % of control; under setting [5], 92 % of control; (dose: 240.0 mg/kg/injection, schedule: Q01DX005 (ip), vehicle: Klucel (hydroxypropylcellulose) (HPC)) 89 % of control.

For the molecule `Cc1cccc(/C(=C\c2ccc([N+](=O)[O-])cc2)C(=O)Nc2ccc(S(=O)(=O)F)c(C)c2)c1`, the T/C is 88 % of control under setting [4] and 86 % of control under setting [5].

Take `CC(=O)Oc1cc2c(cc1OC(C)=O)OCC(c1ccc(C)cc1)C2` (stereo not drawn): the T/C was 105 % of control under setting [1], 108 % of control under setting [2] and 107 % of control under setting [3].

Take `O=c1ccc2cc(-c3ccncc3)cnc2[nH]1`: the T/C is 100 % of control (dose: 25.0 mg/kg/injection, schedule: Q04DX002 (ip), vehicle: saline with Tween-80) and 94 % of control (dose: 50.0 mg/kg/injection, schedule: Q04DX002 (ip), vehicle: saline with Tween-80).

For `C=CC(=C)CCC=C(C)C`, the T/C (dose: 100.0 mg/kg/injection, schedule: Q01DX009 (ip), vehicle: saline with Tween-80) was 104 % of control; the T/C (dose: 100.0 mg/kg/injection, schedule: Q04DX003 (ip), vehicle: saline with Tween-80) was 110 % of control; the T/C (dose: 200.0 mg/kg/injection, schedule: Q01DX009 (ip), vehicle: saline with Tween-80) is 113 % of control; the T/C (dose: 200.0 mg/kg/injection, schedule: Q04DX003 (ip), vehicle: saline with Tween-80) is 110 % of control; the T/C (dose: 400.0 mg/kg/injection, schedule: Q04DX003 (ip), vehicle: saline with Tween-80) was 110 % of control.

In the case of `O=C1C(=Cc2ccc(Cl)cc2)C(=O)N(c2ccccc2)C(=S)N1c1ccccc1`, the T/C is 101 % of control (dose: 100.0 mg/kg/injection, schedule: Q04DX002 (ip), vehicle: Klucel (hydroxypropylcellulose) (HPC)); 93 % of control (dose: 200.0 mg/kg/injection, schedule: Q04DX002 (ip), vehicle: Klucel (hydroxypropylcellulose) (HPC)); 89 % of control (dose: 400.0 mg/kg/injection, schedule: Q04DX002 (ip), vehicle: Klucel (hydroxypropylcellulose) (HPC)).

These data come from PubChem BioAssay AID330 (DTP/NCI, 2004).
